Our source for the IC50 and inhibition values is patent US20040242639A1, “Phospholipase C inhibitors for use in treating inflammatory disorders” (priority 2003, published 2004).

Each structure is given as a SMILES string.

In this assay the target is T1, human PLC-β2 (Homo sapiens, UniProt Q00722).
T1 construct: made in house; host or cells: Sf9 cells (Spodoptera frugiperda), recombinant baculovirus
As to the kind of experiment: PLC assay using FlashPlates (immobilized [3H]PIP2 hydrolysis). The assay is classed as biochemical. The conditions noted are these: for IC50: 96-well Phospholipid FlashPlates coated with [3H]PIP2, purified recombinant human PLC-β2 or cytosolic human PLC-β2; for inhibition at 10 µM: read-out: %. The text has this:
The hydrolysis of phosphatidylinositol-4,5-bisphosphate (PIP2) by a specific phospholipase C-β2 (PLC-β2) produces two intracellular messengers, diacylglycerol (DAG) and inositol 1,4,5-trisphosphate ([…]), which mediate the activation of protein kinase C and intracellular Ca^2+ release. A conventional organic solvent extraction method is widely used for PLC assays to isolate IP3 from the substrate […]. The conventional PLC-β2 assay, however is terminated by addition of acidified organic solvents and subsequent extraction and phase separation. […] Accordingly, a preferred method to test the compounds of the present invention, was developed utilizing a 96-well plate assay for PLC-β2 using immobilized radiolabeled substrate to quantitatively measure the reduction in the substrate level without a need for organic solvent extraction. The automated PLC-β2 assay described herein provides a convenient method for quantitative measurement of phospholipase C activities in a high throughput fashion.
Ninety-six well Phospholipid FlashPlates were coated with 0.2 mL of 50 mM Tris/HCl (pH 7.4), 0.01% Ac-BSA and 50,000 cpm of ^[3H]PIP2 (phosphatidylinositol-4,5-bisphosphate) at 4° C. for 72 h. The wells were aspirated and washed twice with PBS. The reactions were conducted directly in the wells in PLC reaction buffer containing 50 mM Tris/HCl (pH 7.2), 2.75 mM EDTA (pH 7.3), 80 mM KCl, 10 mM LiCl, 0.04% DOC and 2 mM CaCl2 in the absence or presence of the purified recombinant human PLC-β2 (prepared as described hereafter) or cytosolic human PLC-β2 from […]. Reduction of radioactivity was monitored by a Packard TopCount instrument (Packard Instrument Company, Conn., USA).
Suspension cultures of Sf9 cells were maintained in a spinner flask at 27° C. and stirred at 90 rpm. The cells were grown in Grace's media supplemented with 10% (v/v) fetal bovine serum, 3.3 g/l yeastolate, 3.3 g/l lactalbumin hydrosylate, glutamine (6.4 mM final), […] gentamicin, and 50 µg/ml kanamycin. Suspension of Sf9 cells (1.0×10^6 cells/ml) were infected with 5 pfu/cell of recombinant baculovirus encoding PLC-β2 and incubated at 27° C. for 72 h. The cells were collected by centrifugation (500×g, 7 min, 4° C.) and disrupted by hypotonic lysis buffer containing 20 mM Tris/HCl, pH 7.4, 5 mM MgCl2, 2 mM EGTA, 200 μM PMSF, 200 μM benzamidine and 1 μM pepstatin A. The lysate was sonicated on ice and the nuclei and unbroken cells removed by centrifugation (500×g, 5 min, 4° C.). The supernatant was recovered and clarified by centrifugation (34,000 rpm, 60 min, 4° C.). The supernatant was used as a crude cytosolic fraction (Paterson, A., Boyer, J. L., Watts, V. J., Morris, A. J., Price, E. M., Harden, T. K. (1995) Concentration of enzyme-dependent activation of PLC β1 and PLC β2 by Gα11 and βγ subunits. Cellular Signalling 7, 709-720).
Crude cytosol prepared from Sf9 cells expressing PLC-β2 was purified initially by chromatography on a 10 ml column of Q-Sepharose FF, equilibrated in buffer A (25 mM HEPES, pH 7.2,2 mM DTT, 2mM EDTA, 2 mM EGTA, 200 μM PMSF, 200 μM benzamidine, 1 μM pepstatin A containing 10 mM NaCl). […]

T1 sequence (Q00722 whole entry): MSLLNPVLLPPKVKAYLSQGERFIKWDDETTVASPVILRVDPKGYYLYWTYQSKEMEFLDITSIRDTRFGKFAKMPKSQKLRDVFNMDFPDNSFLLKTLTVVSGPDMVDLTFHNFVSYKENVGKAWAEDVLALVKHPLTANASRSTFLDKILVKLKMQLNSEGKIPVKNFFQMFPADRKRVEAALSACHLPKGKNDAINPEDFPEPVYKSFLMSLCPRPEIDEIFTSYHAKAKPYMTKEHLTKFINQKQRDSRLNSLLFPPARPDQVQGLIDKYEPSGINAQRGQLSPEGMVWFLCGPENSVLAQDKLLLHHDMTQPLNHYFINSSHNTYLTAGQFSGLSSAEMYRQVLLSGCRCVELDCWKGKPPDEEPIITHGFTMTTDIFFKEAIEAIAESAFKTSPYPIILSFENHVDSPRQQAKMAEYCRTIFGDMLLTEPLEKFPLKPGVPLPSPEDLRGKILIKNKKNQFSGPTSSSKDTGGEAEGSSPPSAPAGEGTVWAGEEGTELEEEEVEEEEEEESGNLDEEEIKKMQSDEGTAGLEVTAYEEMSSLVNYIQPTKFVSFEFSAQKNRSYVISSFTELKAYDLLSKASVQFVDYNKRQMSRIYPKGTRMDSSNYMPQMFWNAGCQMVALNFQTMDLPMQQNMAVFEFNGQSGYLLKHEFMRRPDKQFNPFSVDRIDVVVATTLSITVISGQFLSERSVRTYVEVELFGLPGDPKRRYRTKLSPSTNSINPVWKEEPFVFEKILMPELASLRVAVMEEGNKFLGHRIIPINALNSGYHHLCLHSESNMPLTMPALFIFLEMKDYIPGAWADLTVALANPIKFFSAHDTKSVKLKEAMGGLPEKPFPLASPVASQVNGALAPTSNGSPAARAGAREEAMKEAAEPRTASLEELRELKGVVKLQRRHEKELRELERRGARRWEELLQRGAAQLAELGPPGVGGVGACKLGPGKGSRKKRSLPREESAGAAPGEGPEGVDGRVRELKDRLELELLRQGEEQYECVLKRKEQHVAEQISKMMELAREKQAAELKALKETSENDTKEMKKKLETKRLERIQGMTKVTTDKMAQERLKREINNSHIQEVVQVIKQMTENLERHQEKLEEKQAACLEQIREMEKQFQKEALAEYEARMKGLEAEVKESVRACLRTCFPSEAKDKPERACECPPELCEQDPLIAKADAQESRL

Turning to `NC(=O)c1ccc(N2CCC(Cc3ccccc3)CC2)c(NC(=O)Nc2ccccc2)c1` [Cpd 1, 3-[[(phenylamino)carbonyl]amino]-4-[4-(phenylmethyl)-1-piperidinyl]-benzamide], the concentration for half-maximal inhibition (IC50) is 3.4 µM. In the case of `NC(=O)c1ccc(N2CCC(c3ccccc3)CC2)c(NC(=O)Nc2ccccc2)c1` [Cpd 2, 3-[[(phenylamino)carbonyl]amino]-4-(4-phenyl-1-piperidinyl)-benzamide], the IC50 stood at 7.1 µM.

`NC(=O)c1ccc(N2CCC(c3ccccc3)CC2)c(NC(=O)Nc2ccc3c(c2)OCO3)c1` [Cpd 3, 3-[[(1,3-benzodioxol-5-ylamino)carbonyl]amino]-4-(4-phenyl-1-piperidinyl)-benzamide]: the half-maximal inhibitory concentration (IC50) worked out at 11 µM.

For `NC(=O)c1ccc(N2CCC(C(c3ccccc3)c3ccccc3)CC2)c(NC(=O)Nc2ccccc2)c1` [Cpd 6, 4-[4-(diphenylmethyl)-1-piperidinyl]-3-[[(phenylamino)carbonyl]amino]-benzamide], the inhibition at 10 µM turned out to be 60.7%. As to `NC(=O)c1ccc(N2CCC(=C(c3ccccc3)c3ccccc3)CC2)c(NC(=O)Nc2ccccc2)c1` [Cpd 7, 4-[4-(diphenylmethylene)-1-piperidinyl]-3-[[(phenylamino)carbonyl]amino]-benzamide], the inhibition at 10 µM came to 49.8%.
